From patent US9539252B2, “Piperazine-substituted benzothiophene derivatives as antipsychotic agents” (OTSUKA PHARMACEUTICAL CO., LTD., priority 2011, dated 2017) come the findings set out here.

The data set is described as follows: Solubility in oil (sesame oil, benzyl benzoate), visual observation. To be noted: benzyl benzoate, oil or lipid, thermodynamic from solid.

Each structure is given as a SMILES string.

What is called solubility is the dissolved amount per volume that the medium holds. With `O=C(OCN1C(=O)CCc2ccc(OCCCCN3CCN(c4cccc5sccc45)CC3)cc21)c1ccoc1` [Example 96, furan-3-carboxylic acid 7-[4-(4-benzo[b]thiophen-4-ylpiperazin-1-yl)butoxy]-2-oxo-3,4-dihydro-2H-quinolin-1-ylmethyl ester], the solubility is greater than 100 mg/mL.
With `COCCNC(=O)OCN1C(=O)CCc2ccc(OCCCCN3CCN(c4cccc5sccc45)CC3)cc21` [Example 97, N-(2-methoxyethyl)carbamic acid 7-[4-(4-benzo[b]thiophen-4-ylpiperazin-1-yl)butoxy]-2-oxo-3,4-dihydro-2H-quinolin-1-ylmethyl ester], the solubility is greater than 100 mg/mL.
The figure for `CCOC(=O)CCNC(=O)OCn1c(=O)ccc2ccc(OCCCCN3CCN(c4cccc5sccc45)CC3)cc21` [Example 99, 3-{7-[4-(4-benzo[b]thiophen-4-ylpiperazin-1-yl)butoxy]-2-oxo-2H-quinolin-1-ylmethoxycarbonylamino}-propionic acid ethyl ester] is greater than 100 mg/mL; for `CCCCOCCOCC(=O)OCN1C(=O)CCc2ccc(OCCCCN3CCN(c4cccc5sccc45)CC3)cc21` [Example 100, (2-butoxyethoxy)acetic acid 7-[4-(4-benzo[b]thiophen-4-ylpiperazin-1-yl)butoxy]-2-oxo-3,4-dihydro-2H-quinolin-1-ylmethyl ester] it is greater than 100 mg/mL; for `COC(=O)CCCNC(=O)OCn1c(=O)ccc2ccc(OCCCCN3CCN(c4cccc5sccc45)CC3)cc21` [Example 101, 4-{7-[4-(4-benzo[b]thiophen-4-ylpiperazin-1-yl)butoxy]-2-oxo-2H-quinolin-1-ylmethoxycarbonylamino}butyric acid methyl ester] it is greater than 100 mg/mL.
The figure for `CN1CCC(C(=O)OCN2C(=O)CCc3ccc(OCCCCN4CCN(c5cccc6sccc56)CC4)cc32)CC1` [Example 102, 1-methylpiperidine-4-carboxylic acid 7-[4-(4-benzo[b]thiophen-4-ylpiperazin-1-yl)butoxy]-2-oxo-3,4-dihydro-2H-quinolin-1-ylmethyl ester] is greater than 100 mg/mL; for `CCCCC(C)(C)C(=O)OCn1c(=O)ccc2ccc(OCCCCN3CCN(c4cccc5sccc45)CC3)cc21` [Example 103, 2,2-dimethylhexanoic acid 7-[4-(4-benzo[b]thiophen-4-ylpiperazin-1-yl)butoxy]-2-oxo-2H-quinolin-1-ylmethyl ester] it is greater than 100 mg/mL; for `CCCCCCCCCCCCCCC(=O)OCn1c(=O)ccc2ccc(OCCCCN3CCN(c4cccc5sccc45)CC3)cc21` [Example 104, pentadecanoic acid 7-[4-(4-benzo[b]thiophen-4-ylpiperazin-1-yl)butoxy]-2-oxo-2H-quinolin-1-ylmethyl ester] it is greater than 100 mg/mL.
On to `CC(C)CCC(=O)OCN1C(=O)CCc2ccc(OCCCCN3CCN(c4cccc5sccc45)CC3)cc21` [Example 105, 4-methylpentanoic acid 7-[4-(4-benzo[b]thiophen-4-ylpiperazin-1-yl)butoxy]-2-oxo-3,4-dihydro-2H-quinolin-1-ylmethyl ester], for which the solubility was greater than 100 mg/mL.
The figure for `O=C(OCN1C(=O)CCc2ccc(OCCCCN3CCN(c4cccc5sccc45)CC3)cc21)C1CCCCCC1` [Example 106, cycloheptanecarboxylic acid 7-[4-(4-benzo[b]thiophen-4-ylpiperazin-1-yl)butoxy]-2-oxo-3,4-dihydro-2H-quinolin-1-ylmethyl ester] is greater than 100 mg/mL; for `O=C(NOCc1ccccc1)OCN1C(=O)CCc2ccc(OCCCCN3CCN(c4cccc5sccc45)CC3)cc21` [Example 107, benzyloxycarbamic acid 7-[4-(4-benzo[b]thiophen-4-ylpiperazin-1-yl)butoxy]-2-oxo-3,4-dihydro-2H-quinolin-1-ylmethyl ester] it is greater than 100 mg/mL.
The result for `CCCCCCCCCCCCCCCCC(=O)OCn1c(=O)ccc2ccc(OCCCCN3CCN(c4cccc5sccc45)CC3)cc21` [Example 108, heptadecanoic acid 7-[4-(4-benzo[b]thiophen-4-ylpiperazin-1-yl)butoxy]-2-oxo-2H-quinolin-1-ylmethyl ester] reads greater than 100 mg/mL.
